This is an account of results in patent US10544106B2, “Certain chemical entities, compositions, and methods” (NeuPharma, Inc., priority 2016, dated 2020).

For this test, the target named is BTK (Homo sapiens (Human), UniProt Q06187). Put plainly: Z'-LYTE kinase inhibition assay against BTK. Conditions: for IC50: series of concentrations, GraphPad Prism 5. In kind it is biochemical. How it is done:
Inhibitory activities of compounds against BTK, EGFR T790M, EGFR L858R, and EGFR L858R/T790M were measured using Z′-LYTE® Method from Life Technologies as briefly described in the following.
Test Compounds are screened in 1% DMSO (final) in the well. For 10 point titrations, 3-fold serial dilutions are conducted from the starting concentration. All ATP Solutions are diluted to a 4× working concentration in Kinase Buffer (50 mM HEPES pH 7.5, 0.01% BRIJ-35, 10 mM MgCl2, 1 mM EGTA). Peptide/Kinase Mixtures are diluted to a 2× working concentration in the appropriate Kinase Buffers as described below. • (i) Peptide/Kinase Mixtures for measurement of EGFR (ErbB1) L858R: • The 2×EGFR (ErbB1) L858R/Tyr 04 mixture is prepared in 50 mM HEPES pH 7.5, 0.01% BRIJ-35, 10 mM MgCl2, 4 mM MnCl2. 1 mM EGTA, 2 mM DTT. The final 10 μL Kinase Reaction consists of 0.2-1.68 ng EGFR (ErbB1) L858R and 2 μM Tyr 04 in 50 mM HEPES pH 7.5, 0.01% BRIJ-35, 10 mM MgCl2, 2 mM MnCl2, 1 mM EGTA, 1 mM DTT. After the 1 hour Kinase Reaction incubation, 5 μL of a 1:64 dilution of Development Reagent B is added. • (ii) Peptide/Kinase Mixtures for measurement of EGFR (ErbB1) T790M: The 2×EGFR (ErbB1) T790M/Tyr 04 mixture is prepared in 50 mM HEPES pH 6.5, 0.01% BRIJ-35, 10 mM MgCl2, 1 mM EGTA, 0.02% NaN3. The final 10 μL Kinase Reaction consists of 3.9-30.2 ng EGFR (ErbB1) T790M and 2 μM Tyr 04 in 50 mM HEPES pH 7.0, 0.01% BRIJ-35, 10 mM MgCl2, 1 mM EGTA, 0.01% NaN3. After the 1 hour Kinase Reaction incubation, 5 μL of a 1:64 dilution of Development Reagent B is added. • (iii) Peptide/Kinase Mixtures for measurement of EGFR (ErbB1) L858R/T790M: The 2×EGFR (ErbB1) T790M L858R/Tyr 04 mixture is prepared in 50 mM HEPES pH 6.5, 0.01% BRIJ-35, 10 mM MgCl2, 1 mM EGTA, 0.02% NaN3. The final 10 μL Kinase Reaction consists of 0.38-4.22 ng EGFR (ErbB1) T790M L858R and 2 μM Tyr 04 in 50 mM HEPES pH 7.0, 0.01% BRIJ-35, 10 mM MgCl2, 1 mM EGTA, 0.01% NaN3. After the 1 hour Kinase Reaction incubation, 5 μL of a 1:64 dilution of Development Reagent B is added. • (iv) Peptide/Kinase Mixtures for measurement of BTK: The 2×BTK/Tyr 01 mixture is prepared in 50 mM HEPES pH 7.5, 0.010/BRIJ-35, 10 mM MgCl2, 1 mM EGTA. The final 10 μL Kinase Reaction consists of 1.04-10.4 ng BTK and 2 μM Tyr 01 in 50 mM HEPES pH 7.5, 0.01% BRIJ-35, 10 mM MgCl2, 1 mM EGTA. After the 1 hour Kinase Reaction incubation, 5 μL of a 1:256 dilution of Development Reagent B is added.
Reaction starts by 30-second shaking of mixture consisting of 2.5 μL 4× test compound, 5 μL 2× kinase reaction mixture and 2.5 μL 4×ATP Solution on Bar-coded Corning, low volume NBS, black 384-well plate (Corning Cat. #3676). Then the mixture is incubated for 60-minute at room temperature for the kinase reaction, followed by addition of 5 μL of a 1:1024 dilution of development reagent A and 30-second plate shake. The mixture is then incubated for another 60-minute at room temperature for development reaction. Finally fluorescence is read by plate reader.
The Z′-LYTE assay was carried out with ATP concentration at Km. The scale utilized in Tables 2-6 is as follows: ++ more than 50% inhibition and + less than 50% inhibition.
To determine IC50 of a compound against a kinase, a series of concentrations of the compound were tested for the inhibition. IC50 was calculated by plotting the concentration of compound vs the percentage of inhibition in treated wells using GraphPad Prism 5. […] The scale utilized in Table 7 is as follows: ++ less than 100 nM and + greater than 100 nM.

Where [1] appears, read: compound at 100 nM, ATP concentration at Km.

Sequence of BTK (Q06187 whole entry): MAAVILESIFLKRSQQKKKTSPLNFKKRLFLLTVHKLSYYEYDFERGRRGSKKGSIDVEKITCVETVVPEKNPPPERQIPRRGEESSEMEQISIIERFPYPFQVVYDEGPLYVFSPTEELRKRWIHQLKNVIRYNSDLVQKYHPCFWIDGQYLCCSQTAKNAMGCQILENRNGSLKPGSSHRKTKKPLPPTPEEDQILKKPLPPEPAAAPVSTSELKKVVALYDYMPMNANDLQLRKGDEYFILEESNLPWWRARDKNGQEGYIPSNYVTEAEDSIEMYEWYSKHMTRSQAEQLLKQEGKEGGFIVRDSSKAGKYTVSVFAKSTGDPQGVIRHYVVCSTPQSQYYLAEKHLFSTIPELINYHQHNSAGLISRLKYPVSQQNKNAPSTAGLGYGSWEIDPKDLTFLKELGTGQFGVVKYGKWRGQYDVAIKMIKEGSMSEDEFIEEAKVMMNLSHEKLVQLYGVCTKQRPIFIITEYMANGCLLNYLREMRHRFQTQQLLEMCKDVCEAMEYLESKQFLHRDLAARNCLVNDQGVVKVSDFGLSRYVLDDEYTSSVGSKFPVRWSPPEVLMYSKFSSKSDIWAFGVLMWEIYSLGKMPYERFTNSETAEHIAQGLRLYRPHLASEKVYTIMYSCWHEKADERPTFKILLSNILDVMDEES

Usually IC50 stands for the concentration that gives 50% inhibition. A higher IC50 goes with lower potency. In the case of “4-(5-Amino-1-(1-(but-2-ynoyl)pyrrolidin-3-yl)imidazo[1,5-c]pyrimidin-3-yl)-N-(pyridin-2-yl)-3-(trifluoromethyl)benzamide [C248]”, the IC50 was < 0.1 µM. One may read the inhibition as how much of the control response was suppressed. Lower therefore signals little suppression. For `C=CC(=O)N1CCC(c2nc(-c3ccc(Oc4ccccn4)cc3)n3c(N)nccc23)C1` (racemic) [C224, (R/S)-1-(3-(5-amino-3-(4-(pyridin-2-yloxy)phenyl)imidazo[1,5-c]pyrimidin-1-yl)pyrrolidin-1-yl)prop-2-en-1-one], the IC50 is < 0.1 µM. Moreover, the inhibition at 0.1 µM under setting [1] is > 50%.

In the case of `C=CC(=O)N1CCC(c2nc(-c3ccc(Oc4ccccn4)cc3)n3c(N)nccc23)C1` (racemic) [C225, (S/R)-1-(3-(5-amino-3-(4-(pyridin-2-yloxy)phenyl)imidazo[1,5-c]pyrimidin-1-yl)pyrrolidin-1-yl)prop-2-en-1-one], the IC50 was < 0.1 µM. Further, the “% Inhibition against BTK” value under setting [1] is given as “++ (more than 50% inhibition)”. Regarding `C=CC(=O)Nc1cccc(-c2cc(-c3ccccc3)cc3cnc(-c4ccccc4)nc23)c1` [C001, N-(3-(2,6-diphenylquinazolin-8-yl)phenyl)acrylamide], the inhibition at 0.1 µM under setting [1] was < 50%. As to `C=CC(=O)Nc1cccc(-c2cc(-c3ccccc3Cl)cc3cnc(-c4ccccc4)nc23)c1` [C002, N-(3-(6-(2-chlorophenyl)-2-phenylquinazolin-8yl)phenyl)acrylamide], under setting [1], the inhibition at 0.1 µM is < 50%. Consider `C=CC(=O)Nc1cccc(-c2cc(-c3ccccc3)cc3cncnc23)c1` [C004, N-(3-(6-phenylquinazolin-8-yl)phenyl)acrylamide], for which the IC50 was < 0.1 µM. For the same compound, the inhibition at 0.1 µM under setting [1] was > 50%. Take `C=CC(=O)Nc1cccc(-c2cc(-c3ccccc3)cc3cnc(N)nc23)c1` [C005, N-(3-(2-amino-6-phenylquinazolin-8-yl)phenyl)acrylamide]: the IC50 is < 0.1 µM. Also, the inhibition at 0.1 µM under setting [1] was > 50%. For `C=CC(=O)Nc1cccc(-c2cc(-c3ccncc3)cc3cncnc23)c1` [C006, N-(3-(6-(pyridin-4-yl)quinazolin-8-yl)phenyl)acrylamide], in that order: < 0.1 µM and > 50%.

Take `C=CC(=O)Nc1cccc(-c2cc(-c3cccnc3)cc3cncnc23)c1` [C007, N-(3-(6-(pyridin-3-yl)quinazolin-8-yl)phenyl)acrylamide]: the IC50 was < 0.1 µM. Further, the inhibition at 0.1 µM under setting [1] is > 50%.

On to `C=CC(=O)N1CCC=C(c2cc(-c3ccc(C(=O)Nc4ccccn4)cc3)cc3cncnc23)C1` [C009, 4-(8-(1-acryloyl-1,2,5,6-tetrahydropyridin-3-yl)quinazolin-6-yl)-N-(pyridin-2-yl)benzamide], for which, under setting [1], the inhibition at 0.1 µM is < 50%.

Consider `C=CC(=O)Nc1cccc(-c2cc(-c3ccc(C)nc3)cc3cncnc23)c1` [C010, N-(3-(6-(6-methylpyridin-3-yl)quinazolin-8-yl)phenyl)acrylamide], for which the inhibition at 0.1 µM under setting [1] is > 50%. `C=CC(=O)Nc1cccc(-c2cc(-c3cccc(Nc4cccc(C(F)(F)F)c4)c3)cc3cncnc23)c1` [C011, N-(3-(6-(3-((3-(trifluoromethyl)phenyl)amino)phenyl)quinazolin-8-yl)phenyl)acrylamide]: the inhibition at 0.1 µM under setting [1] is < 50%. In the case of `C=CC(=O)N1CCCC(n2c(-c3ccccc3)nc3cncnc32)C1` (stereo not drawn) [C012, 1-(3-(8-phenyl-9H-purin-9-yl)piperidin-1-yl)prop-2-en-1-one], the inhibition at 0.1 µM under setting [1] was < 50%. Take `C=CC(=O)Nc1cccc(-n2c(-c3ccccc3)nc3cncnc32)c1` [C014, N-(3-(8-phenyl-9H-purin-9-yl)phenyl)acrylamide]: under setting [1], the inhibition at 0.1 µM is < 50%. On the same count and under the same terms, then `C=CC(=O)N1CCC(n2c(-c3ccccc3)nc3cnc(N)nc32)C1` (stereo not drawn) [C015, 1-(3-(2-amino-8-phenyl-9H-purin-9-yl)pyrrolidin-1-yl)prop-2-en-1-one], with < 50%. Regarding `C=CC(=O)Nc1cccc(-c2cc(-c3ccccc3)cc3c(N)ncnc23)c1` [C016, N-(3-(4-amino-6-phenylquinazolin-8-yl)phenyl)acrylamide], the inhibition at 0.1 µM under setting [1] was < 50%.

As for `C=CC(=O)Nc1cccc(-c2cc(-c3cccc(Nc4ccccc4)c3)cc3cncnc23)c1` [C017, N-(3-(6-(3-(phenylamino)phenyl)quinazolin-8-yl)phenyl)acrylamide], the inhibition at 0.1 µM under setting [1] was > 50%. On the same count and under the same terms, with `C=CC(=O)Nc1cccc(-c2cc(-c3ccnc(C(F)(F)F)c3)cc3cncnc23)c1` [C018, N-(3-(6-(2-(trifluoromethyl)pyridin-4-yl)quinazolin-8-yl)phenyl)acrylamide] the figure was < 50%; with `C=CC(=O)Nc1cccc(-c2cc(-c3ccc(Nc4cccc(C(F)(F)F)c4)cc3)cc3cncnc23)c1` [C019, N-(3-(6-(4-((3-(trifluoromethyl)phenyl)amino)phenyl)quinazolin-8-yl)phenyl)acrylamide], < 50%. Turning to `C=CC(=O)N1CCCC(c2cc(-c3ccccc3)cc3cncnc23)C1` (stereo not drawn) [C020, 1-(3-(6-phenylquinazolin-8-yl)piperidin-1-yl)prop-2-en-1-one], the inhibition at 0.1 µM under setting [1] was < 50%. Turning to `C=CC(=O)N1CCC(n2c(-c3ccccc3)nc3cncnc32)C1` (stereo not drawn) [C021, 1-(3-(8-phenyl-9H-purin-9-yl)pyrrolidin-1-yl)prop-2-en-1-one], the inhibition at 0.1 µM under setting [1] was < 50%. Turning to `C=CC(=O)Nc1cccc(-c2cc(-c3cccc(Nc4ccccc4)c3)cc3c(N)ncnc23)c1` [C022, N-(3-(4-amino-6-(3-(phenylamino)phenyl)quinazolin-8-yl)phenyl)acrylamide], under setting [1], the inhibition at 0.1 µM is < 50%. Regarding `C=CC(=O)Nc1cccc(-c2cc(-c3ccc(Oc4ccccc4)cc3)cc3cncnc23)c1` [C023, N-(3-(6-(4-phenoxyphenyl)quinazolin-8-yl)phenyl)acrylamide], the IC50 was < 0.1 µM. Moreover, the inhibition at 0.1 µM under setting [1] was > 50%.

`C=CC(=O)Nc1cccc(-n2c(-c3ccccc3)nc3cnc(N)nc32)c1` [C024, N-(3-(2-amino-8-phenyl-9H-purin-9-yl)phenyl)acrylamide]: the inhibition at 0.1 µM under setting [1] is < 50%. Consider `C=CC(=O)Nc1cccc(-c2cc(-c3ccc(Nc4ccccc4)cc3)cc3cncnc23)c1` [C025, N-(3-(6-(4-(phenylamino)phenyl)quinazolin-8-yl)phenyl)acrylamide], for which, under setting [1], the inhibition at 0.1 µM is < 50%.

Consider `C=CC(=O)N1CCC(n2c(-c3ccccc3Cl)nc3cnc(N)nc32)C1` (stereo not drawn) [C026, 1-(3-(2-amino-8-(2-chlorophenyl)-9H-purin-9-yl)pyrrolidin-1-yl)prop-2-en-1-one], for which the inhibition at 0.1 µM under setting [1] was < 50%. Same read-out and setting: with `C=CC(=O)N1CCCC(n2c(-c3ccccc3Cl)nc3cnc(N)nc32)C1` (stereo not drawn) [C027, 1-(3-(2-amino-8-(2-chlorophenyl)-9H-purin-9-yl)piperidin-1-yl)prop-2-en-1-one] the figure was < 50%. Consider `C=CC(=O)N1CCCC(c2cc(-c3ccc(Oc4ccccc4)cc3)cc3cnc(N)nc23)C1` (stereo not drawn) [C028, 1-(3-(2-amino-6-(4-phenoxyphenyl)quinazolin-8-yl)piperidin-1-yl)prop-2-en-1-one], for which the IC50 is < 0.1 µM. Moreover, the inhibition at 0.1 µM under setting [1] was > 50%.
